# Key:
# Assay type in all cases: cell-based
# Listeria monocytogenes = test: Time-kill curves for BLAD and/or EDTA; details: EDTA at 0.1 mg/ml alone
# Description: (§1) • MIC—Minimum Inhibitory Concentration: the lowest concentration of an antimicrobial that inhibits the visible growth of a microorganism. • MFC/MBC—Minimum Fungicidal/Bactericidal Concentration (or Minimal Lethal Concentration): the lowest concentration of an antimicrobial agent needed to kill 99.9% of the initial inoculum after 24 h under a standardized set of conditions. • Time-kill curves—Determination of the “killing” of an isolate over time by one or more antimicrobial agents under controlled conditions is known as the time-kill method. It is a broth based method where the rate of killing of a fixed inoculum is determined by sampling control (organism, no drug) and antimicrobial agent-containing tubes or flasks, at certain time intervals, and determining the survivor colony count (cfu/ml) by spreading each sample onto an agar plate.
# (§2) Time-kill curves for BLAD and/or EDTA with (A) Listeria monocytogenes, (B) Pseudomonas aeruginosa and (C) Candida albicans: see FIG. 9.
# Pseudomonas aeruginosa = test: Time-kill curves for BLAD and/or EDTA; details: EDTA at 1 mg/ml alone
# Description: as §1, §2
# Candida albicans [1] = test: Time-kill curve and growth curve for BLAD and/or EDTA; details: EDTA at 0.1 mg/ml alone
# Description: as §1, §2
# Candida albicans [2] = test: Growth curve in PDB pH 7 medium
# From the text: Growth curve for BLAD with Candida albicans in PDB pH 7 medium: see FIG. 4.
structure (smiles),measurement,setting,value
"O=C(O)CN(CCN(CC(=O)O)CC(=O)O)CC(=O)O [EDTA, ethylenediaminetetraacetic acid]",activity in time-kill curve,Listeria monocytogenes,neither BLAD at 10 μg/ml nor EDTA at 0.1 mg/ml inhibits growth
same,activity in time-kill curve,Pseudomonas aeruginosa,bacteriostatic
same,activity in time-kill curve,Candida albicans [1],fungistatic
C[C@@H]1[C@H](O)[C@@H](C)/C=C/C=C/C=C/C=C/C=C/C=C/C=C/[C@H](O[C@@H]2O[C@H](C)[C@@H](O)[C@H](N)[C@@H]2O)C[C@@H]2O[C@](O)(C[C@@H](O)C[C@@H](O)[C@H](O)CC[C@@H](O)C[C@@H](O)CC(=O)O[C@H]1C)C[C@H](O)[C@H]2C(=O)O [amphotericin B],activity in growth curve,Candida albicans [2]; 10 μg/ml,fungistatic
OC(Cn1cncn1)(Cn1cncn1)c1ccc(F)cc1F [fluconazole],activity in growth curve,Candida albicans [2]; 100 μg/ml,merely delays growth

# — patent US11161885B2, “Antimicrobial protein” (CONSUMO EM VERDE—BIOTECNOLOGIA DAS PLANTAS, S.A., priority 2010, dated 2021)
